# Assay results: patent US20060106042A1, “Substituted heterocyclpyrmidines” (priority 2002, published 2006)
# Like-named read-outs stand apart in the source and are kept apart here.
# How the values were obtained:
# Meloidogyne incognita = test: Meloidogyne test (gall formation on lettuce roots); type: in vivo; details: for pest or weed control at 20 ppm: Meloidogyne incognita, 336 h, after 14 d, nematicidal action by gall formation on lettuce, read-out: Kill rate in % after 14 d; for kill rate: 20 ppm, Meloidogyne test as described
# Procedure: (§1) • Solvent: 7 parts by weight of dimethylformamide • Emulsifier: 2 parts by weight of alkylaryl polyglycol ether
# To produce a suitable preparation of active compound, 1 part by weight of active compound is mixed with the stated amounts of solvent and emulsifier, and the concentrate is diluted with water to the desired concentration.
# Vessels are filled with sand, solution of active compound, Meloidogyne incognita egg/larvae suspension and lettuce seeds. The lettuce seeds germinate and the plants develop. On the roots, galls are formed.
# After the desired period of time, the nematicidal action is determined in % using the formation of galls. 100% means that no galls were found; 0% means that the number of galls on the treated plants corresponds to that of the untreated control.
# [1] = system: greenhouse red spider mite (Tetranychus urticae); test: Tetranychus test (OP-resistant/dip treatment); type: in vivo; details: 168 h, read-out: Kill rate in % after 7 d
# Procedure: Tetranychus Test (OP-Resistant/Dip Treatment)
# as §1
# After the desired period of time, the effect in % is determined. 100% means that all spider mites have been killed; 0% means that none of the spider mites have been killed.
# [2] = logP determination by reversed-phase HPLC (EEC Directive 79/831 Annex V.A8); type: physicochemical; details: for logP a): acidic range: 0.1% aqueous phosphoric acid/acetonitrile gradient, C18, 43° C.
# Description: (a) Mobile phases for the determination of the acidic range: 0.1% aqueous phosphoric acid, acetonitrile; linear gradient from 10% acetonitrile to 90% acteonitrile—the corresponding measurement results in Table 1 are marked^a). […]
# [3] = system: larvae of the mustard beetle (Phaedon cochleariae); test: Phaedon larvae test (cabbage leaves, dip); type: in vivo; details: 168 h, after 7 d, cabbage leaves dipped, read-out: Kill rate in % after 7 d
# Procedure: as §1
# After the desired period of time, the kill in % is determined. 100% means that all beetle larvae have been killed; 0% means that none of the beetle larvae have been killed.
# [4] = system: caterpillars of the armyworm (Spodoptera frugiperda); test: Spodoptera frugiperda test (cabbage leaves, dip); type: in vivo; details: 168 h, after 7 d, cabbage leaves dipped, read-out: Kill rate in % after 7 d
# Procedure: Spodoptera frugiperda Test
# as §1
# After the desired period of time, the kill in % is determined. 100% means that all caterpillars have been killed; 0% means that none of the caterpillars have been killed.
# [5] = 100 ppm, after 7 d, OP-resistant, bean plants dipped
# [6] = reversed-phase HPLC column (C18); acidic range: 0.1% aqueous phosphoric acid/acetonitrile gradient, C18, 43° C.; read-out: logP a)
SMILES,pest or weed control at 20 ppm (Meloidogyne incognita),"chromatographic logP [2, 6]",kill rate (Meloidogyne incognita),other results
FC(F)=C(F)CCSc1nccc(-n2cccc2)n1 [Example 41],100%,–,–,–
FC(F)=CCCSc1nccc(-c2ncccc2Cl)n1 [Example 43],–,3.32,–,"pest or weed control at 100 ppm [1, 5]: 99%"
CC(C)(C)c1ccnc(-c2ccnc(SCCC=C(F)F)n2)c1 [Example 33],–,4.8,–,"pest or weed control at 100 ppm [1, 5]: 100%"
FC(F)=CCCSc1nccc(-n2ncc3ccccc32)n1 [Example 87],–,–,100%,logP a) [2]: logP = 4.26^a)
O=C1CCC(=O)N1c1ccnc(SCCC=C(F)F)n1 [Example 119],–,–,100%,–
CC(C)(C)n1nnc(-c2cnc(SCCC(F)=C(F)F)nc2)n1 [Example 67],100%,4.22,–,pest or weed control at 500 ppm [3]: 100%
COc1ccc(-c2ccnc(SCCC=C(F)F)n2)nc1 [Example 50],–,2.12,–,pest or weed control at 500 ppm [4]: 100%
Cc1nn(-c2ccnc(SCCC=C(F)F)n2)cc1Br [Example 82],–,–,100%,logP a) [2]: logP '2 4.76^a)
Cc1ccc(-c2ccnc(SCCC=C(F)F)n2)s1 [Example 52],–,4.3,–,pest or weed control at 500 ppm [4]: 100%
FC(F)=CCCSc1nccc(-n2nc3ccccc3n2)n1 [Example 42],–,3.98,–,"pest or weed control at 100 ppm [1, 5]: 99%"
FC(F)=C(F)CCSc1nccc(-c2cc(Cl)sc2Cl)n1 [Example 64],100%,5.55,–,–
FC(F)=C(F)CCSc1nccc(-c2cc3ccccc3s2)n1 [Example 57],100%,4.85,–,–
Cc1cc(C)n(-c2ccnc(SCCC=C(F)F)n2)n1 [Example 86],–,–,100%,logP a) [2]: logP = 3.95^a)
FC(F)=C(F)CCSc1nccc(-c2cnccn2)n1 [Example 16],100%,2.92,–,–
FC(F)=CCCSc1nccc(-c2ccncc2)n1 [Example 10],–,1.72,–,pest or weed control at 500 ppm [3]: 100%
CC(C)Oc1cnn(-c2ccnc(SCCC=C(F)F)n2)c1 [Example 85],–,–,100%,logP a) [2]: logP = 4.26^a)
N#Cc1cccn1-c1ccnc(SCCC=C(F)F)n1 [Example 104],–,–,100%,logP a) [2]: logP = 3.23^a)
COc1ccc(-c2ccnc(SCCC(F)=C(F)F)n2)nc1 [Example 49],100%,2.17,–,–
FC(F)=CCCSc1nccc(-c2nc3ccc(Cl)cc3s2)n1 [Example 45],100%,5.57,–,–
FC(F)=CCCSc1nccc(-c2cc(Cl)sc2Cl)n1 [Example 63],–,5.65,–,pest or weed control at 100 ppm [1]: 100%; pest or weed control at 500 ppm [4]: 100%
FC(F)=CCCSc1nccc(-c2ccsc2)n1 [Example 59],–,3.8,–,pest or weed control at 500 ppm [3]: 100%
FC(F)=C(F)CCSc1nccc(-c2nccs2)n1 [Example 12],100%,1.56,–,–
Cc1cc(=O)[nH]n1-c1ccnc(SCCC=C(F)F)n1 [Example 39],100%,2.55,–,–
FC(F)=CCCSc1nccc(-n2cccc2)n1 [Example 120],–,–,100%,–
FC(F)=CCCSc1nccc(-n2nnc3ccccc32)n1 [Example 40],–,3.97,–,pest or weed control at 500 ppm [4]: 100%
FC(F)=CCCSc1nccc(-n2nccn2)n1 [Example 125],–,–,100%,–
FC(F)=CCCSc1nccc(-c2ccc(Br)s2)n1 [Example 51],–,4.77,–,pest or weed control at 500 ppm [4]: 100%

SMILES,pest or weed control at 20 ppm (Meloidogyne incognita),"chromatographic logP [2, 6]",kill rate (Meloidogyne incognita),other results
FC(F)=CCCSc1nccc(-n2cnc(Cl)n2)n1 [Example 109],–,–,100%,logP a) [2]: logP = 3.31^a)
Cc1nccn1-c1ccnc(SCCC=C(F)F)n1 [Example 107],–,–,100%,logP a) [2]: logP = 1.30^a)
O=[N+]([O-])c1ncn(-c2ccnc(SCCC=C(F)F)n2)n1 [Example 110],–,–,100%,logP a) [2]: logP = 2.95^a)
Nc1ccn(-c2ccnc(SCCC=C(F)F)n2)n1 [Example 97],–,–,100%,logP a) [2]: logP = 2.31^a)
FC(F)=CCCSc1nccc(-c2cc(-c3ccccc3)ccn2)n1 [Example 32],–,4.77,–,"pest or weed control at 100 ppm [1, 5]: 100%"
FC(F)=CCCSc1nccc(-c2cccc(Br)n2)n1 [Example 17],–,4.51,–,"pest or weed control at 100 ppm [1, 5]: 100%"
Cc1cc(-c2ccnc(SCCC(F)=C(F)F)n2)c(C)s1 [Example 62],100%,4.79,–,–
FC(F)=C(F)CCSc1nccc(-c2cccs2)n1 [Example 28],100%,3.84,–,–
FC(F)=CCCSc1nccc(-c2ccc(Cl)s2)n1 [Example 3],100%,4.73,–,pest or weed control at 500 ppm [3]: 100%
FC(F)=CCCSc1nccc(-n2cnc(Cl)c2Cl)n1 [Example 88],–,–,100%,logP a) [2]: logP = 3.57^a)
FC(F)=CCCSc1nccc(-c2cccs2)n1 [Example 27],–,3.83,–,"pest or weed control at 100 ppm [1, 5]: 100%"
FC(F)=CCCSc1nccc(-c2ccc3ccccc3n2)n1 [Example 31],–,4.81,–,pest or weed control at 500 ppm [4]: 100%
FC(F)=C(F)CCSc1nccc(-c2ccc3ccccc3n2)n1 [Example 34],100%,4.81,–,–
CCOc1cccc(-c2ccnc(SCCC=C(F)F)n2)n1 [Example 20],–,4.91,–,pest or weed control at 500 ppm [4]: 100%
Nc1nn(-c2ccnc(SCCC=C(F)F)n2)cc1Br [Example 93],–,–,100%,logP a) [2]: logP = 3.15^a)
FC(F)=CCCSc1nccc(-n2cc(Cl)cn2)n1 [Example 24],–,4.13,–,pest or weed control at 500 ppm [3]: 100%
FC(F)=CCCSc1nccc(-c2cc3ccccc3s2)n1 [Example 53],–,4.87,–,pest or weed control at 500 ppm [4]: 100%
FC(F)=CCCSc1nccc(-n2cncn2)n1 [Example 112],–,–,100%,logP a) [2]: logP = 2.44^a)
[O-][S+](CCC=C(F)F)c1nccc(-c2ccccn2)n1 (centres unmarked) [Example 5],–,1.47,–,pest or weed control at 100 ppm [1]: 100%
"FC(F)=CCCSc1nccc(Cl)n1 [Example (II-1), 4-chloro-2-[(4,4-difluoro-3-butenyl)-sulfanyl]-pyrimidine]",–,–,–,"chromatographic logP ([2]; reversed-phase HPLC column (C18), pH 2.3, read-out: logP (pH 2.3)): 3.3"
FC(F)=CCCSc1nccc(-c2cscn2)n1 [Example 48],–,3.14,–,pest or weed control at 500 ppm [4]: 100%
FC(F)=C(F)CCSc1nccc(-c2ccsc2)n1 [Example 60],100%,3.82,–,–
FC(F)=C(F)CCSc1nccc(-c2ccc[nH]2)n1 [Example 21],100%,–,–,–
FC(F)=CCCSc1nccc(-n2cnc(-c3ccccc3)c2)n1 [Example 92],–,–,100%,logP a) [2]: logP = 3.45^a)
FC(F)=C(F)CCSc1nccc(-n2cccn2)n1 [Example 22],100%,3.27,–,–
FC(F)=CCCSc1nccc(-c2cccnc2)n1 [Example 9],100%,1.96,–,"pest or weed control at 100 ppm [1, 5]: 100%"
